Read-outs that look alike come from different tables or passages of the source. No end group written: not given here.
Legend:
[1] = test system: Rat chondrocyte
Protocol: Chondrocytes were cultured in a T75 flask for 3-4 days. When the degree of fusion reached 80%, the original culture medium was removed, and sterile PBS was added to clean the cells for 2-3 times, then a proper amount of digestive juice was added, and a fresh culture medium was added after the cells were detached. Cells were centrifuged to remove the cell sap containing the digestive juice, and a proper amount of fresh culture medium was added to be prepared into a cell suspension with appropriate concentration for cell subculture or cell experiments. Cell subculture began from generation P1 and ended till generation P5, and there were cryopreserved cells in each generation. Cells were used for the experiment when subcultured to P2-P5.
According to the inoculum size of 200 μL/well, the cell suspension with the density of 2.5*10^4/mL was inoculated onto a 96-well cell culture plate, and 3 groups were prepared in total, one for control group, and the other two groups were stimulated by hydrogen peroxide. A cell-free medium was prepared as a blank group. There were 4-5 sub-wells prepared in each group. The cell culture plate was put to an incubator for incubation for 24 hours. The culture medium was replaced to different experimental groups in the following day with a dose volume of 100 μl and incubated for 24 or 48 hours respectively.
At the end of incubation according to the experimental plan, 10 μL of 5 mg/ml MTT was added to each experimental group based upon 1/10 of the cell culture volume, so that the cells were incubated with MTT in the incubator for 4 hours. Afterwards, supernatant was carefully discarded, and 200 μL of dimethyl sulfoxide (DMSO) was added for mixing well, then the absorbance was measured on a microplate reader at a test wavelength of 570 nm. Calculating formula of relative cell activity ratio (%): a mean value of the absorbance (per well) in the experimental group/the absorbance in the control group multiplies by 100%. All experimental groups were expressed as mean±standard deviation (X±SD). The difference between each group was analyzed by Prism 7.0, and tested by one-way ANOVA. *P<0.05 means statistical difference, **P<0.01 means significant statistical difference, and […] means extremely significant statistical difference.
The experimental concentration of hydrogen peroxide ranged within 0.01, 0.1, 0.5, 1, 10 mM. In order to determine the H2O2 molding time and dosage, three molding time points at 24 hours, 48 hours and 72 hours were selected, and two detection wells were prepared in total for each dosage of hydrogen peroxide.

[2] = test system: type-II CIA mice; experiment: Chronic inflammation model of type-II CIA in mice; format: in vivo, Balb/c mice; settings: for ankle width / arthritis scoring / paw circumference / weight of mice / spleen weight: day 60; for ankle width: model G2 4.83±0.20; for arthritis scoring: model G2 11.5±1.7; for paw circumference: model G2 13.62; for weight of mice: model G2 19.5±1.6; for spleen weight: model G2 114.6±14.5
Protocol: Experimental method: Balb/c mice were taken and immunized for the first time. The concentration of type-II bovine collagen was 4 mg/mL. On the day of the experiment (day 0), complete Freund's adjuvant (CFA) and CII solution were mixed evenly in equal volume and emulsified. Excepting for the normal control group of Balb/c mice, mice in each group were sensitized by intracutaneous injection of 50 μL emulsifier at the end of tails. 21 days later, mice were re-immunized with the same dose of emulsifier at the end of tails, and incomplete Freund's adjuvant (IFA) served as an adjuvant at this time. Redness and swelling other arthritic symptoms appeared on toe joints of mice models approximately on the 29th day of the experiment, indicating successful modeling.
Animals in the modeling group on the 30th day of the experiment were randomly divided into:
There were 12 groups in total, and there were 8 pieces of mice in remaining each group excepting for 12 pieces in G1 (normal control group) and G2 (model group).
Measurement of mice weight: mice were weighed by an electronic balance every two days.
Measurement of sole thickness: the thickness of left, right and hind soles for each mouse was measured by a vernier caliper every two days.
Measurement of ankle joint width: the width of left and right ankle joints for each mouse was measured by vernier caliper every two days.
Arthritis index (AI) score: the severity of arthritis for each mouse was evaluated by a paw joint scoring method. 0: no redness and swelling; 1: redness and swelling of little toe joints; 2: redness and swelling of toe joints and toes; 3: redness and swelling of the portion below ankle joints; 4: redness and swelling of toe joints, toes and ankle joints. Scoring was performed once every two days until the end of the experiment.
Blood was collected from the orbit and serum was separated. After mice were killed by cervical dislocation, spleen and thymus were separated and weighed to calculate a spleen coefficient, and then the spleen and thymus were fixed in formalin stationary liquid.

[3] = test system: mice splenic lymphocyte proliferation stimulated by ConA; format: cell-based; settings: for optimal (best) inhibition rate of splenic lymphocyte proliferation: ConA 5 μg/mL, 48 h, MTT, best of the tested concentrations; for inhibition rate / in vitro efficacy compared with TSL-4 control group: control: TSL-4 (P4 positive control, 12 μmol/L)
Protocol: Experimental method: mice orbit was by bloodletting to death, and immediately immersed in 75% ethanol for 5-10 min, and then the spleen was removed on a clean bench and placed in PBS. The spleen was placed on a sterile cell strainer (200 mesh) and ground with a syringe nozzle; during grinding process, PBS was added continuously; the slurry was collected and centrifuged (1000 rpm for 5 min), then cells were washed 3 times with Tris-ammonium chloride solution, and washed again with a medium, and then re-suspended in the medium. Finally, trypan blue living cell staining was performed on the cells, and the survival rate was more than 95%. The concentration of viable cells was adjusted to 2×10^6/mL. […] was added to each well of a 96-well plate, meanwhile, ConA (concanavalin to simulate splenocyte proliferation) and drugs were added to each well. Six duplicates were set in each group.
The 96-well plate was incubated for 48 h in a 5% CO2 incubator at 37° C. 5 mg/mL of MTT was added to the 96-well plate, 20 μL for each well, and then it was incubated continuously for 4 h in the incubator. The culture medium in the 96-well plate was discarded and 100 μL DMSO was added to each well and mixed gently. Absorbance was measured by a microplate reader at the wavelength of 570 nm and reference wavelength of 630 nm.
Proliferation inhibition rate (PI) was calculated according to formula:
[formula] wherein, Atest is the absorbance of dosing group, and Acontrol is the absorbance of negative control. Test results were expressed as mean±SD, and statistical T test was performed. *P<0.05 indicates significant difference, **P<0.01 indicates extremely significant difference. Based upon the results, the efficacy of the fusion protein against rheumatoid arthritis was screened.
In the P4 control group, TSL-4 fusion protein served as a control agent.

[4] = test system: transgenic blood vessel fluorescent zebrafish; experiment: In vivo anti-angiogenesis in zebrafish (SIVs area); set-up: area of SIVs: unit not given here; settings: for inhibiting effect on angiogenesis: 20 ng/tail; for inhibition rate of angiogenesis / area of SIVs: 24 h; for area of SIVs: normal control group 53193
Protocol: Experimental method: transgenic blood vessel fluorescent zebrafish was randomly selected and put into a six-well plate with 30 fish per well, and intravenously injected HM-3 polypeptide, TSL-1 fusion protein, TSL-2 fusion protein, TSL-3 fusion protein and TSL-4 fusion protein respectively in accordance with the dosage of 20 ng/tail and 66 ng/tail; the dosage was […] in Avastin positive control and the injection volume was 20 nL/tail; the zebrafish injected 20 nL/tail of buffer solution served as a solvent control group, and the zebrafish without any treatment served as a normal control group. 10 pieces of zebrafish were randomly selected from each group after processed for 24 h to observe the intestinal vessels of the transgenic zebrafish by a fluorescence microscope, as well as to take and maintain images. Image analysis was performed by Nikon MS-Elements D 3.10 to calculate the area (S) of SIVs (subintestinal vessel, SIV). The calculation formula of angiogenesis inhibition rate was as follows: Angiogenesis inhibition rate (%)=(1−S(Test sample group)/S(Normal control group))×100%
Statistical analysis was performed by variance analysis and Dunnett's T-test and the results were expressed as Mean±SD, where p<0.05 indicates a significant difference.

[5] = test system: human macrophage U937; experiment: TNF-α production by LPS-induced human macrophage U937 (ELISA); format: cell-based; settings: LPS 1 μg/mL, 48 h, negative group 77.6±19.6
Protocol: Experimental method: Human macrophage U937 was cultured in RPMI-1640 medium containing 10% fetal bovine serum and double antibodies in a constant temperature incubator at 37° C. under the condition of 5% CO2, and the medium was replaced every 2 days. U937 cells in the logarithmic phase were collected, resuspended and adjusted to the concentration of 5×10^5/mL. 100 μL of cells was added to each well of a 96-well plate overnight and induced with LPS (1 μg/mL) in the following day, where n=3. At the same time, the cells were treated with agents, and respectively divided into a positive control group adalimumab, an HM-3 polypeptide group, an mPEG-SC-HM-3 polypeptide group, an HM-3 fusion protein (TSL-1, TSL-2, TSL-3, TSL-4) group, and the specific dosing scheme was shown in Table 5.
48 h after the agents worked, culture medium was collected and centrifuged, and supernatant was taken to measure the content of TNF-α therein by ELISA. Test results were expressed as mean±SD, and statistical T test was performed. *P<0.05 indicates significant difference, **P<0.01 indicates extremely significant difference. Based upon the results, the efficacy of the HM-3 fusion protein against rheumatoid arthritis was screened.

[6] = G3 Adalimumab 8 mg/kg SC 1 time/14 d, 1 time
[7] = G4 HM-3 1.6 mg/kg IV 2 times/d, 30 times

Molecule: OO [H2O2, hydrogen peroxide]
- MTT test value ([1]; 0.01 mM H2O2, 24 h, 0 mM 2.35): 2.51
- MTT test value ([1]; 0.01 mM H2O2, 48 h, 0 mM 2.24): 2.1
- MTT test value ([1]; 0.01 mM H2O2, 72 h, 0 mM 1.94): 1.99
- MTT test value ([1]; 0.1 mM H2O2, 24 h, 0 mM 2.35): 2.29
- MTT test value ([1]; 0.1 mM H2O2, 48 h, 0 mM 2.24): 2.08
- MTT test value ([1]; 0.1 mM H2O2, 72 h, 0 mM 1.94): 1.92
- MTT test value ([1]; 1 mM H2O2, 24 h, 0 mM 2.35): 1.28
- MTT test value ([1]; 1 mM H2O2, 48 h, 0 mM 2.24): 1.47
- MTT test value ([1]; 1 mM H2O2, 72 h, 0 mM 1.94): 0.81
- MTT test value ([1]; 10 mM H2O2, 24 h, 0 mM 2.35): 0.06
- MTT test value ([1]; 10 mM H2O2, 48 h, 0 mM 2.24): 0.56
- MTT test value ([1]; 10 mM H2O2, 72 h, 0 mM 1.94): −0.07

Molecule: Adalimumab [reference compound]
- ankle width [2, 6]: 4.23±0.08 mm
- arthritis scoring [2, 6]: 7.6±0.9
- paw circumference [2, 6]: 11.42±0.20 mm
- weight of mice [2, 6]: 21.0 ± 1.5 g
- spleen weight [2, 6]: 94.6 ± 6.7 mg

Molecule: HM-3-(GGGGS)3-mIgG4-Fc [TSL-2]
- optimal (best) inhibition rate of splenic lymphocyte proliferation [3]: 34.1%
- inhibiting effect on angiogenesis [4]: significant inhibitory effect
- inhibition rate of angiogenesis ([4]; 20 ng/tail iv): 19%
- area of SIVs ([4]; 20 ng/tail iv): 42828
- inhibition rate of angiogenesis ([4]; 66 ng/tail iv): 39%
- area of SIVs ([4]; 66 ng/tail iv): 32374

Molecule: HM-3-HyFc [TSL-14]
- inhibition rate / in vitro efficacy compared with TSL-4 control group [3]: Significantly lower

Molecule: HyFc-(GGGGS)3-HM-3 [TSL-16]
- inhibition rate / in vitro efficacy compared with TSL-4 control group [3]: Significantly lower

Molecule: IVRRADRAAVPGGGGRGD [HM-3, Ile-Val-Arg-Arg-Ala-Asp-Arg-Ala-Ala-Val-Pro-Gly-Gly-Gly-Gly-Arg-Gly-Asp]
- TNF-α content in cell supernatant ([5]; high-dosage (Table 5: 18 μmol/L)): 58.9 ± 10.6 pg/mL
- TNF-α content in cell supernatant ([5]; low-dosage (Table 5: 9 μmol/L)): 83.9 ± 20.4 pg/mL
- inhibiting effect on angiogenesis [4]: no inhibiting effect
- inhibition rate of angiogenesis ([4]; 20 ng/tail iv): 2%
- area of SIVs ([4]; 20 ng/tail iv): 52186
- inhibition rate of angiogenesis ([4]; 66 ng/tail iv): 20%
- area of SIVs ([4]; 66 ng/tail iv): 42492
- ankle width [2, 7]: 4.21±0.15 mm
- arthritis scoring [2, 7]: 7.8±1.4
- paw circumference [2, 7]: 11.41±0.53 mm
- weight of mice [2, 7]: 20.9 ± 1.5 g
- spleen weight [2, 7]: 94.2 ± 13.3 mg
- therapeutic effect compared with group G3 (positive Adalimumab group) ([2]; groups G4 (HM-3), G10 (TSL-4 12.5 mg/kg once for 5 days, 3 times)): slightly lower than that of the group G3

B1: HM-3-(GGGGS)3-IgG2-Fc (protein)
chain: IVRRADRAAVPGGGGRGDGGGGSGGGGSGGGGSERKCCVECPPCPAPPVAGPSVFLFPPKPKDTLMISRTPEVTCVVVDVSHEDPEVQFNWYVDGVEVHNAKTKPREEQFNSTFRVVSVLTVVHQDWLNGKEYKCKVSNKGLPAPIEKTISKTKGQPREPQVYTLPPSREEMTKNQVSLTCLVKGFYPSDISVEWESNGQPENNYKTTPPMLDSDGSFFLYSKLTVDKSRWQQGNVFSCSVMHEALHNHYTQKSLSLSPGK
- optimal (best) inhibition rate of splenic lymphocyte proliferation [3]: 39.6%
- inhibiting effect on angiogenesis [4]: significant inhibitory effect
- inhibition rate of angiogenesis ([4]; 20 ng/tail iv): 25%
- area of SIVs ([4]; 20 ng/tail iv): 39929
- inhibition rate of angiogenesis ([4]; 66 ng/tail iv): 30%
- area of SIVs ([4]; 66 ng/tail iv): 37022
